Values after ≈ are worked out from the molar mass of the structure shown.
What was measured:
[1] = system: Mycobacterium tuberculosis; experiment: Antitubercular activity against Mycobacterium tuberculosis H37Rv assessed as growth inhibition at 6.25 ug/ml after 4 days by microplate alamar blue assay; assay type: functional; conditions: 96 h
[2] = system: Mycobacterium tuberculosis; experiment: Antitubercular activity against Mycobacterium tuberculosis H37Rv assessed as growth inhibition by 2-fold dilution assay; assay type: functional
[3] = system: Vero; experiment: Cytotoxicity against African green monkey Vero cells; assay type: cell-based; conditions: Chlorocebus sabaeus
[4] = Selectivity index, ratio of IC50 for African green monkey Vero cells to MIC for Mycobacterium tuberculosis H37Rv; assay type: toxicity, cell-based; conditions: read-out: Selectivity Index

Row | SMILES | inhibition at 6.25 µg/mL [1] | MIC [2] | IC50 [3] | selectivity ratio [4]
1 | COc1ccc(C2NC(N)=Nc3c2c(C)nn3-c2ccc3c(c2)Nc2ccccc2S3)cc1 (centres undefined) | 42% | – | – | –
2 | NNC(=O)c1ccncc1 [ISONIAZID] | – | 0.03 µg/mL (≈ 0.219 µM) | > 1000 µg/mL | > 40000
3 | Cc1nn(-c2ccc3c(c2)Nc2ccccc2S3)c2c1C(c1cccc(Cl)c1)NC(N)=N2 (centres undefined) | 56% | – | – | –
4 | Cc1nn(-c2ccc3c(c2)Nc2ccccc2S3)c2c1C(c1cccc(O)c1)NC(N)=N2 (centres undefined) | 57% | – | – | –
5 | Cc1nn(-c2ccc3c(c2)Nc2ccccc2S3)c2c1C(c1cccc([N+](=O)[O-])c1)NC(N)=N2 (centres undefined) | 73% | – | – | –
6 | Cc1nn(-c2ccc3c(c2)Nc2ccccc2S3)c2c1C(c1ccccc1)NC(N)=N2 (centres undefined) | 78% | – | – | –
7 | Cc1nn(-c2ccc3c(c2)Nc2ccccc2S3)c2c1C(c1ccc([N+](=O)[O-])cc1)NC(N)=N2 (centres undefined) | 95% | 1.73 µg/mL (≈ 3.68 µM) | 9.1 µg/mL (≈ 19.4 µM) | 5.2
8 | Cc1nn(-c2ccc3c(c2)Nc2ccccc2S3)c2c1C(c1ccccc1O)NC(N)=N2 (centres undefined) | 92% | 2.23 µg/mL (≈ 5.06 µM) | 7.8 µg/mL (≈ 17.7 µM) | 3.5
9 | Cc1nn(-c2ccc3c(c2)Nc2ccccc2S3)c2c1C(c1ccccc1Cl)NC(N)=N2 (centres undefined) | 95% | 1.73 µg/mL (≈ 3.77 µM) | > 10 µg/mL | 5.8
10 | Cc1nn(-c2ccc3c(c2)Nc2ccccc2S3)c2c1C(c1ccc(Cl)cc1)NC(N)=N2 (centres undefined) | 100% | 0.02 µg/mL (≈ 0.0436 µM) | > 10 µg/mL | > 500
11 | Cc1nn(-c2ccc3c(c2)Nc2ccccc2S3)c2c1C(c1ccc(O)cc1)NC(N)=N2 (centres undefined) | 67% | – | – | –
12 | Cc1nn(-c2ccc3c(c2)Nc2ccccc2S3)c2c1C(c1ccccc1[N+](=O)[O-])NC(N)=N2 (centres undefined) | 94% | 1.73 µg/mL (≈ 3.68 µM) | > 10 µg/mL | 5.8

From ChEMBL document CHEMBL3124789, “4,5-Dihydro-1H-pyrazolo[3,4-d]pyrimidine containing phenothiazines as antitubercular agents” (Bioorg Med Chem Lett, 2014)
